{
  "source": "patent US20260049072A1",
  "about": "“HETEROCYCLIC COMPOUND FOR INDUCING DEGRADATION OF MUTANT KRAS PROTEIN” (Astellas Pharma Inc., priority 2022, published 2026)",
  "key": {"RAS G12V": {"target": "T1, RAS G12V (Homo sapiens, UniProt P01116, G12V)", "T1 construct": "host or cells: PA-TU-8902 human pancreatic cancer cells", "T1 sequence (P01116 1-188 isoform P01116-2 G12V)": "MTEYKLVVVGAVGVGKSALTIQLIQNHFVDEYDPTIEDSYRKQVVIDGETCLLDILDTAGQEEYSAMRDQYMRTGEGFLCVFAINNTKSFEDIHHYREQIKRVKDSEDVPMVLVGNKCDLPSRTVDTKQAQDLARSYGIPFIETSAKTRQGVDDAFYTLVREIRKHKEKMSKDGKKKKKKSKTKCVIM", "assay": "RAS G12V degradation activity, Cell ELISA, PA-TU-8902", "assay_type": "cell-based", "settings": "PA-TU-8902 cells, 24 hours, 100% = Example compound 17 at 1 μM; read-out: DC50 (RAS G12V 50% degradation value)", "summary_of_the_method": "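PA-TU-8902 cells (KRAS G12V) treated 24 h at 37 °C with 10 concentrations, 3 μM to 0.1 nM final; fixed, permeabilised, stained with G12V-specific and β-actin antibodies, infrared fluorescence read. Degradation scaled from DMSO (0%) to 1 μM reference degrader (100%), actin-normalised; DC50 by Sigmoid-Emax regression.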"}, "PA-TU-8902 cells": {"system": "PA-TU-8902 cells", "assay": "Non-anchorage-dependent cell growth inhibition (spheroid 3D culture), PA-TU-8902", "assay_type": "cell-based, human", "settings": "Homo sapiens, PaTu 8902, 144 h; KRAS G12V mutant-positive, 3D spheroid, six days, CellTiter-Glo 2.0; read-out: PA-TU-8902 IC50", "summary_of_the_method": "(§1)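 Human pancreatic lines (PA-TU-8902 KRAS G12V, AsPC-1 G12D, MIA PaCa-2 G12C) grown as spheroids at 5×10^2 cells/well in low-adhesion round-bottom plates; MIA PaCa-2 in RPMI-1640 with 10% FBS. Compounds added next day (6-9 points, 3 μM to 0.3 nM final) for six days at 37 °C, 5% CO2. CellTiter-Glo luminescence, IC50 by Sigmoid-Emax regression versus DMSO and cell-free controls.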"}, "AsPC-1 cells": {"system": "AsPC-1 cells", "assay": "Non-anchorage-dependent cell growth inhibition (spheroid 3D culture), AsPC-1", "assay_type": "cell-based", "settings": "Homo sapiens, ASPC1, 144 h; KRAS G12D mutant-positive, 3D spheroid, six days, CellTiter-Glo 2.0; read-out: AsPC-1 IC50", "summary_of_the_method": "as §1"}, "MIA PaCa-2 cells": {"system": "MIA PaCa-2 cells", "assay": "Non-anchorage-dependent cell growth inhibition (spheroid 3D culture), MIA PaCa-2", "assay_type": "cell-based", "settings": "Homo sapiens, MIA PaCa-2, 144 h; KRAS G12C mutant-positive, 3D spheroid, six days, CellTiter-Glo 2.0; read-out: MIA PaCa-2 IC50", "summary_of_the_method": "as §1"}},
  "data": [
    {"molecule": "CO[C@@H](C)COc1nc(NC2CN(C(=O)O[C@H]3C[C@@H](N(C)C)C3)C2)c2cc(C3CC3)c(-c3c(C)c(F)cc4[nH]ncc34)c(OCc3ccc(-c4cn([C@H](C(=O)N5C[C@H](O)C[C@H]5C(=O)N[C@@H](CO)c5ccc(-n6cncn6)cc5)C(C)C)nn4)cc3)c2n1", "note": "(atropisomer, axis not shown; (M)) [Example 2, (1s,3R)-3-(dimethylamino)cyclobutyl 3-({(7M)-6-cyclopropyl-7-(6-fluoro-5-methyl-1H-indazol-4-yl)-8-{[4-(1-{(2S)-1-[(2S,4R)-4-hydroxy-2({(1R)-2-hydroxy-1-[4-(1H-1,2,4-triazol-1-yl)phenyl]ethyl}carbamoyl)pyrrolidin-1-yl]-3-methyl-1-oxobutan-2-yl}-1H-1,2,3-triazol-4-yl)phenyl]methoxy}-2-[(2S)-2-methoxypropoxy]quinazolin-4-yl}amino)azetidine-1-carboxylate]", "values": [
      {"measurement": "DC50", "setting": "RAS G12V", "result": 18, "unit": "nM"},
      {"measurement": "IC50", "setting": "PA-TU-8902 cells", "result": 33, "unit": "nM"},
      {"measurement": "IC50", "setting": "AsPC-1 cells", "result": 11, "unit": "nM"},
      {"measurement": "IC50", "setting": "MIA PaCa-2 cells", "result": 12, "unit": "nM"}
    ]}
  ]
}
